Results from patent US8912359B2, “Bisbenzamidines for the treatment of pneumonia” (University of Cincinnati, priority 2003, dated 2014).
In brackets after ≈: the same amount, converted by molar mass. Where two headings read alike, the source gives them in different places.

Legend:
Calf thymus DNA = test: DNA Binding ΔTm, calf thymus
Pneumocystis = Pneumocystis ATP detection assay; assay type: cell-based, P. carinii; settings: for Anti-Pneumocystis Activity: semi-qualitative scale from highly active to no activity, based on IC50; for IC50: concentration reducing ATP content of Pneumocystis populations by 50% vs untreated controls, 48 hours exposure (Table 1 title)
From the text: An ATP assay system (Cushion, Chen et al., 1997; Chen & Cushion, 1994; Collins & Cushion, 2001) was used to evaluate bisbenzamidine analogues as potential therapeutic targets for treatment of pneumonia, particularly that caused by species in the genus Pneumocystis. […]. Development of these compounds could provide new and novel treatment choices for Pneumocystis pneumonia.
A series of novel bisbenzamidines linked by either a rigid (for instance, a phenylene diamide) or a flexible (for instance, a propyl diamide) core are described. Such compounds may be used for the treatment of infections, such as pneumonia and for instance, pneumonia caused by Pneumocystis.
The structure-activity relationships for the piperazine-linked bisbenzamidines and the toxicities of each compound in three different mammalian cell lines are shown in the following tables. Compounds are ranked in order of the lowest concentration necessary to reduce the ATP content of Pneumocystis populations by 50% (i.e., the IC50) compared to untreated control populations. Note that the IC50 values are expressed on a microgram per milliliter and micromolar basis. […];

Poly (dA-dT) = test: DNA Binding ΔTm, Poly (dA-dT)
[1] = test system: A549 lung epithelial cells
From the text: (§1) Two transformed cell lines derived from two different organ systems and a primary cell line were chosen for evaluation of the relative toxicity of each compound. […] The Hep-G2 cell line is an epithelial cell line derived from a human hepatocellular carcinoma, and WI-38 is a human diploid cell line derived from normal embryonic (3 months of gestation) lung tissue.

WI-38 = test: toxicity to WI-38 cell line (ATP system)
From the text: as §1

SMILES	DNA Binding ΔTm Poly (dA-dT) (Poly (dA-dT)) [°C]	DNA Binding ΔTm Calf thymus (Calf thymus DNA) [°C]	Anti-Pneumocystis Activity (Pneumocystis)	IC50 (Pneumocystis) [µg/mL]	toxicity in A549 line [1]	toxicity in WI-38 line (WI-38)	Anti-Pneumocystis Activity (Pneumocystis; listed as —C2H5)	toxicity in A549 line ([1]; human)
CCCCCCCCNC(=N)c1ccc(N2CCN(c3ccc(C(=N)NCCCCCCCC)cc3)CC2)cc1 [compound 11, 4,4′-(1,4-piperazinediyl)bis(N-octylbenzenecarboximidamide)]	–	4.2	Marked	–	–	–	–	–
CCCCCCCCCCNC(=N)c1ccc(N2CCN(c3ccc(C(=N)NCCCCCCCCCC)cc3)CC2)cc1 [compound 18, 4,4′-(1,4-piperazinediyl)bis(N-decylbenzenecarboximidamide)]	–	1.3	Marked	–	–	–	–	–
CCCCCCNC(=N)c1ccc(N2CCN(c3ccc(C(=N)NCCCCCC)cc3)CC2)cc1 [compound 3, 4,4′-(1,4-piperazinediyl)bis(N-hexylbenzenecarboximidamide)]	10.1	10.7	Highly Active	–	–	–	–	–
CCCCCNC(=N)c1ccc(N2CCN(c3ccc(C(=N)NCCCCC)cc3)CC2)cc1 [compound 2, 4,4′-(1,4-piperazinediyl)bis(N-pentylbenzenecarboximidamide)]	22.5	16.9	Highly Active	–	–	–	–	–
N=C(N)c1ccc(OCCCCCOc2ccc(C(=N)N)cc2)cc1 [Pentamidine, reference compound]	20.6	11.1	marked	0.3 (≈ 0.881 µM)	–	–	–	–

Continued, in another order:

DNA Binding ΔTm Poly (dA-dT) (Poly (dA-dT)) [°C]	SMILES	DNA Binding ΔTm Calf thymus (Calf thymus DNA) [°C]	Anti-Pneumocystis Activity (Pneumocystis)	IC50 (Pneumocystis) [µg/mL]	toxicity in A549 line [1]	toxicity in WI-38 line (WI-38)	Anti-Pneumocystis Activity (Pneumocystis; listed as —C2H5)	toxicity in A549 line ([1]; human)
2.7	CCCCCCCCCNC(=N)c1ccc(N2CCN(c3ccc(C(=N)NCCCCCCCCC)cc3)CC2)cc1 [compound 14, 4,4′-(1,4-piperazinediyl)bis(N-nonylbenzenecarboximidamide)]	1.3	Marked	–	–	–	–	–
8.5	CCCCCCCNC(=N)c1ccc(N2CCN(c3ccc(C(=N)NCCCCCCC)cc3)CC2)cc1 [compound 5, 4,4′-(1,4-piperazinediyl)bis(N-heptylbenzenecarboximidamide)]	8.7	Very Marked	–	without toxicity	without toxicity	–	–
18.6	CCNC(=N)c1ccc(N2CCN(c3ccc(C(=N)NCC)cc3)CC2)cc1 [compound 16, 4,4′-(1,4-piperazinediyl)bis(N-ethylbenzenecarboximidamide)]	15.3	marked	0.542 (≈ 1.43 µM)	–	–	Marked	–
0.0	CCCCCCCCCCCCNC(=N)c1ccc(N2CCN(c3ccc(C(=N)NCCCCCCCCCCCC)cc3)CC2)cc1 [compound 15, 4,4′-(1,4-piperazinediyl)bis(N-dodecylbenzenecarboximidamide)]	0.6	Marked	–	–	–	–	not the A549 line
